# Measured values published in ChEMBL document CHEMBL4421731, “Small molecules inhibiting oncoprotein Myc” (2016).
# Calls of active or inactive are those of the source. The rule behind the calls is not given here.
# What was measured:
# [1] = molecular target: Myc proto-oncogene protein (Homo sapiens) (UniProt P01106); test: Inhibition of Myc in human melanoma cells assessed as increase in Myc-repressed p27kip1 gene expression; type: cell-based
# [2] = molecular target: Myc proto-oncogene protein (Homo sapiens) (UniProt P01106); test: Inhibition of Myc in human melanoma cells assessed as reduction in Myc-transactivated thymidylate synthase gene expression; type: cell-based
# [3] = molecular target: T1, N-myc proto-oncogene protein (Homo sapiens) (UniProt P04198); test: Inhibition of N-Myc (unknown origin) expressed in rat Rat1A cells assessed as inhibition of cell growth incubated for 72 hrs by methylene blue staining based assay
# T1 sequence (whole entry): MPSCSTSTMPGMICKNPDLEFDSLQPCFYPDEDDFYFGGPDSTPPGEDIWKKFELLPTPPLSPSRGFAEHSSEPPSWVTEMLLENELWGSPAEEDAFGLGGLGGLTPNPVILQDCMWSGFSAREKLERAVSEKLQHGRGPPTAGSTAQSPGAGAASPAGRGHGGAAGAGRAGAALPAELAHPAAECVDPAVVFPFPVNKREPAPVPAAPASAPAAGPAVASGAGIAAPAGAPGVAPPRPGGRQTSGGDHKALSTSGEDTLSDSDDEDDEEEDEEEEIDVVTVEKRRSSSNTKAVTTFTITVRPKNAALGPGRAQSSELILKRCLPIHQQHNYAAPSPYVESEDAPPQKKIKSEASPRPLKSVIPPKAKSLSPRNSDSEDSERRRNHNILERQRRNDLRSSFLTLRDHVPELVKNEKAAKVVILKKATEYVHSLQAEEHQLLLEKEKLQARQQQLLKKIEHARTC
# [4] = molecular target: Myc proto-oncogene protein (Homo sapiens) (UniProt P01106); test: Inhibition of C-Myc (unknown origin) expressed in rat Rat1A cells assessed as inhibition of cell growth incubated for 72 hrs by methylene blue staining based assay
# [5] = Intrinsic clearance in mouse liver microsomes at 1 uM in presence of NADPH by LC-MS/MS analysis; type: ADME, Microsome
# [6] = Intrinsic clearance in human liver microsomes at 1 uM in presence of NADPH by LC-MS/MS analysis; type: ADME, Microsome
# [7] = system: SK-MEL19; test: Growth inhibition of human SK-MEL-19 cells; type: functional, cell-based
# [8] = system: SK-MEL-103; test: Growth inhibition of human SK-MEL-103 cells; type: functional, cell-based
# [9] = system: BE(2)-C; test: Growth inhibition of human BE(2)-C cells; type: functional, cell-based
# [10] = system: IMR-32; test: Growth inhibition of human IMR32 cells; type: functional, cell-based
# [11] = species on record: Homo sapiens; test: Growth inhibition of N-Myc amplified human NBL-WN cells; type: functional
# [12] = species on record: Homo sapiens; test: Growth inhibition of N-Myc overexpressing human NBL-S cells; type: functional
# [13] = system: SH-SY5Y; test: Growth inhibition of human SH-SY5Y cells; type: functional, cell-based
# [14] = species on record: Homo sapiens; test: Growth inhibition of human SHEP cells; type: functional
# [15] = system: Melanoma cell line; test: Growth inhibition of human melanoma (#3) cells; type: functional, cell-based
# [16] = system: Melanoma cell line; test: Growth inhibition of human melanoma (#10) cells; type: functional, cell-based
# [17] = system: Melanocyte; test: Growth inhibition of human melanocytes; type: cell-based
# [18] = Stability in mouse liver microsomes assessed as parent compound remaining at 1 uM incubated for 0 mins in presence of NADPH by LC-MS/MS analysis; type: ADME, Microsome; conditions: read-out: Stability
# [19] = Stability in human liver microsomes assessed as parent compound remaining at 1 uM incubated for 0 mins in presence of NADPH by LC-MS/MS analysis; type: ADME, Microsome; conditions: read-out: Stability
# Sequence of Myc proto-oncogene protein (Homo sapiens) (P01106 whole entry): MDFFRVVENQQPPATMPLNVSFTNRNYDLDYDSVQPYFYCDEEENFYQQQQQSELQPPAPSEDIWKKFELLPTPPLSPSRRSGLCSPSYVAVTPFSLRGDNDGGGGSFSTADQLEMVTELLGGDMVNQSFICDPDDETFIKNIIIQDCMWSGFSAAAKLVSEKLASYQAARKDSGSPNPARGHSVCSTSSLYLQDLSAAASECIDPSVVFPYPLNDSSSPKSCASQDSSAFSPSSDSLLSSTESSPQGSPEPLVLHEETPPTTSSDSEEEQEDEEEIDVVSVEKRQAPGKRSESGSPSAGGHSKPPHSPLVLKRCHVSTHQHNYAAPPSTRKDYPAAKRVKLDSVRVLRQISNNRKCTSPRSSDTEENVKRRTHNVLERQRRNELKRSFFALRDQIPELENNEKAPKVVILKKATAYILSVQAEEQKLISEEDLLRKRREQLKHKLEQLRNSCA
Structure (SMILES),inhibition [1],inhibition [2],inhibition [3],inhibition [4],intrinsic clearance [5] [µL/min/mg],intrinsic clearance [6] [µL/min/mg],further results
COc1ccc(OCC(=O)N/N=C\c2cc(O)c(O)c(Br)c2)c(Br)c1,Active,Active,–,–,–,–,–
CCCN(CCC)Cc1c(C(=O)N/N=C/c2ccc(N(CC)CC)cc2O)nnn1-c1nonc1N,–,–,Active,Active,270,130,–
CCCOc1ccc(N2C(=O)CC(N3CCC(C(=O)O)CC3)C2=O)cc1 (stereo unspecified),–,–,–,–,–,–,growth inhibition (GI) [7]: inactive; growth inhibition (GI) [8]: inactive
COCc1cc(CN(C)C2CCCCC2)c(O)c2ncccc12,Active,Active,–,–,–,–,growth inhibition (GI) [9]: Active; growth inhibition (GI) [10]: Active; growth inhibition (GI) [11]: Active; growth inhibition (GI) [12]: Active; growth inhibition (GI) [13]: Active; growth inhibition (GI) [14]: Active; growth inhibition (GI) [15]: Active; growth inhibition (GI) [16]: Active; growth inhibition (GI) [17]: Non-Toxic
CCN(CC)c1ccc(/C=N\NC(=O)c2nnn(-c3nonc3N)c2CN2CCCCCC2)c(O)c1,–,–,Active,Active,690,87,–
O=C(N/N=C/c1c(O)ccc2ccccc12)c1cc(C23CC4CC(CC(C4)C2)C3)n[nH]1,Active,Active,–,–,–,–,–
Cc1ccc(/C=N/NC(=O)c2cc(-c3ccccc3)n[nH]2)c(O)c1,–,–,Active,Active,–,–,–
CCN(CC)c1ccc(/C=N/NC(=O)Cn2c3ccccc3c(=O)c3ccccc32)c(O)c1,–,–,Active,Active,100,< 20,–
Nc1nonc1-n1nnc(C(=O)N/N=C/c2ccccc2O)c1CN1CCc2ccccc2C1,–,–,Active,Active,–,–,"remaining at 0 h, 1 µM [18]: 100%; remaining at 0 h, 1 µM [19]: 100%"
CC(C)(C)c1cc(C(=O)N/N=C/c2ccc(O)cc2O)n(-c2ccccc2)n1,Active,Active,–,–,–,–,growth inhibition (GI) [9]: Active; growth inhibition (GI) [10]: Active; growth inhibition (GI) [11]: Active; growth inhibition (GI) [12]: Active; growth inhibition (GI) [13]: Active; growth inhibition (GI) [14]: Active; growth inhibition (GI) [15]: Active; growth inhibition (GI) [16]: Active; growth inhibition (GI) [17]: Non-Toxic
